The target of one assay is T1, EGFR (E746-A750del) (Homo sapiens, UniProt P00533, DEL746-750).
T1 construct: purchased DiscoverX
Kind of assay: scanMAX Kinase analysis panel (DiscoverX), control percentage. The class given is binding. The settings on record: 1 μM in DMSO. On the procedure:
(§1) The following experiments were performed to evaluate the inhibitory activity of compounds according to the present invention against various enzymes. Specifically, with respect to the compound of Example 2 selected from the Example Compounds of the present invention, the enzyme (kinase) selectivity was measured by requesting DiscoverX company, and the experiment was conducted using a scanMAX™ Kinase analysis panel. Here, the concentration of the drug treated with the enzyme was 1 μM in DMSO, and the control percentage (% control) was determined by the following Equation 1.
(§2) (Example Compound−positive control)/(negative control−positive control)×100 [Equation 1]
(§3) Here, the positive control indicates a compound showing the control percentage of 0%, and the negative control indicates DMSO showing the control percentage of 100%. Further, regarding the enzyme selectivity of the present invention, when the control percentage for each enzyme was <30% (i.e., less than 30%), the compound was determined to have the activity against the corresponding enzyme.

A further assay has as its target T2, EGFR (G719C) (Homo sapiens, UniProt P00533, G719C).
T2 construct: purchased DiscoverX
The assay is described as above. The class given is binding. The conditions noted are these: 1 μM in DMSO. As for the experimental part:
as §1, §2, §3

For a further assay, the target named is T3, EGFR (G719S) (Homo sapiens, UniProt P00533, G719S).
T3 construct: purchased DiscoverX
Described as above. The format is binding. The settings on record: 1 μM in DMSO. On the procedure: as §1, §2, §3

A further assay deals with T4, EGFR (Homo sapiens, UniProt P00533).
T4 construct: purchased DiscoverX
The description is as above. The settings on record: 1 μM in DMSO. The class given is binding. On the procedure:
as §1, §2, §3

Assay [1] deals with T5, EGFR (L747-E749del, A750P) (Homo sapiens, UniProt P00533, A750P/DEL747-749).
T5 construct: purchased DiscoverX
Described as above. The class given is binding. The settings on record: 1 μM in DMSO. As for the experimental part: as §1, §2, §3

In assay [2] the target is T6, EGFR (L747-S752del, P753S) (Homo sapiens, UniProt P00533, DEL747-752/P753S).
T6 construct: purchased DiscoverX
The description is as above. The class given is binding. The settings on record: 1 μM in DMSO. On the procedure: as §1, §2, §3

Assay [3] concerns EGFR (L747-T751del, Sins). The description is as above. The class given is binding. The settings on record: 1 μM in DMSO. As for the experimental part:
as §1, §2, §3

In the next assay the target is T7, EGFR (L858R) (Homo sapiens, UniProt P00533, L858R).
T7 construct: purchased DiscoverX
The description is as above. The class given is binding. The settings on record: 1 μM in DMSO. On the procedure: as §1, §2, §3

For another assay, the target named is T8, EGFR (L858R, T790M) (Homo sapiens, UniProt P00533, L858R/T790M).
T8 construct: purchased DiscoverX
The description is as above. The class given is binding. The settings on record: 1 μM in DMSO. On the procedure:
as §1, §2, §3

Another assay addresses T9, EGFR (L861Q) (Homo sapiens, UniProt P00533, L861Q).
T9 construct: purchased DiscoverX
The assay is described as above. The format is binding. The settings on record: 1 μM in DMSO. As for the experimental part:
as §1, §2, §3

The next assay addresses T10, EGFR (T790M) (Homo sapiens, UniProt P00533, T790M).
T10 construct: purchased DiscoverX
Described as above. The format is binding. The settings on record: 1 μM in DMSO. On the procedure: as §1, §2, §3

In another assay the target is T11, EGFR(S752-I759del) (Homo sapiens, UniProt P00533, DEL752-759).
T11 construct: purchased DiscoverX
The assay is described as above. The settings on record: 1 μM in DMSO. The class given is binding. As for the experimental part:
as §1, §2, §3

For a further assay, the target named is EGFR Del19/T790M/C797S (Homo sapiens, UniProt P00533, C797S/T790M, form not given). The experiment in a line: Enzyme IC50, EGFR Del19/T790M/C797S. The class given is biochemical.
Assay [4] concerns BaF3-EGFR (Del19/T790M/C797S) cells. The experiment in a line: Inhibitory activity on Ba/F3 cell proliferation (CellTiter-Glo, 72 hours). The format is cell-based. The conditions noted are these: Ba/F3 cells expressing EGFR Del19/T790M/C797S. The procedure, abridged: (§4)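 Ba/F3 cells expressing wild-type EGFR or EGFR Del19/T790M/C797S, 3×10^3 per well, exposed 72 h at 37 °C to compound at 12 threefold dilutions, 0.00005-10 μM final. Viability by CellTiter-Glo 2.0; GI50 derived from growth relative to DMSO-treated cells.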
A general note: In ATP-based viability assays light output follows the ATP content of the culture.

Another assay deals with BaF3-EGFR (WT) cells. The assay is described as above. The format is cell-based. The conditions noted are these: Ba/F3 cells expressing EGFR WT. In short, it runs like this:
as §4

SMILES strings stand for the structures.

EGFR Del19/T790M/C797S, sequence (P00533 25-1210 T790M/C797S, form open): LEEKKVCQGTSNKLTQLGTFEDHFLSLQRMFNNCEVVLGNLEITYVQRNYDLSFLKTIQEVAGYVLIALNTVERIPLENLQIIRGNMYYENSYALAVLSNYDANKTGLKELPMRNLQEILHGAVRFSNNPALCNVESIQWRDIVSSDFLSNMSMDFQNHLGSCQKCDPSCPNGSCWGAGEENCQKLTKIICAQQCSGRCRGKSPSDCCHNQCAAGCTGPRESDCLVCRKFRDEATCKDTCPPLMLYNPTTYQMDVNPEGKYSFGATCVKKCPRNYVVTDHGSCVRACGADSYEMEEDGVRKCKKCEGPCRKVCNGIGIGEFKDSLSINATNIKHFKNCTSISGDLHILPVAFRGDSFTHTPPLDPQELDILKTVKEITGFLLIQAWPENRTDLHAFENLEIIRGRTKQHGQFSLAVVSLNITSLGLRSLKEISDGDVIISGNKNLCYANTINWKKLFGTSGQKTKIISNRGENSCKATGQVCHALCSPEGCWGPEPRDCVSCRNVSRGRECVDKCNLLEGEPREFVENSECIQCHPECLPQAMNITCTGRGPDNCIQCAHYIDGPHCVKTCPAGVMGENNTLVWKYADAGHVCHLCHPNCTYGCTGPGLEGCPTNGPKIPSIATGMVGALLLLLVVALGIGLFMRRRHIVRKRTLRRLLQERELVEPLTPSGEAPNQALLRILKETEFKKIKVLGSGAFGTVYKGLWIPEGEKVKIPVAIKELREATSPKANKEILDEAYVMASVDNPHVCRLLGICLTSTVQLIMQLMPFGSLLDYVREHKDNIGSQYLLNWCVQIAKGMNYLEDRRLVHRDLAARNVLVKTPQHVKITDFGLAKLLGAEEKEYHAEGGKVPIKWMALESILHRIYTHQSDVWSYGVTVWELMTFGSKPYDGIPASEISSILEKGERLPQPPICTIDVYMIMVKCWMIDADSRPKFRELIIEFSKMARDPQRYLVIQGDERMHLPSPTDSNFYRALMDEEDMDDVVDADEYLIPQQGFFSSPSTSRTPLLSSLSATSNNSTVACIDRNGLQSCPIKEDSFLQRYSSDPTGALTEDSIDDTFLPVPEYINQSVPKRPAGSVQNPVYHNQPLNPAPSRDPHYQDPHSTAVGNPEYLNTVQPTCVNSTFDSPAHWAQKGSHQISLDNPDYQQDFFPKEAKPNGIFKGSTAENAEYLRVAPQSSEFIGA
T7 sequence (P00533 25-1210 L858R): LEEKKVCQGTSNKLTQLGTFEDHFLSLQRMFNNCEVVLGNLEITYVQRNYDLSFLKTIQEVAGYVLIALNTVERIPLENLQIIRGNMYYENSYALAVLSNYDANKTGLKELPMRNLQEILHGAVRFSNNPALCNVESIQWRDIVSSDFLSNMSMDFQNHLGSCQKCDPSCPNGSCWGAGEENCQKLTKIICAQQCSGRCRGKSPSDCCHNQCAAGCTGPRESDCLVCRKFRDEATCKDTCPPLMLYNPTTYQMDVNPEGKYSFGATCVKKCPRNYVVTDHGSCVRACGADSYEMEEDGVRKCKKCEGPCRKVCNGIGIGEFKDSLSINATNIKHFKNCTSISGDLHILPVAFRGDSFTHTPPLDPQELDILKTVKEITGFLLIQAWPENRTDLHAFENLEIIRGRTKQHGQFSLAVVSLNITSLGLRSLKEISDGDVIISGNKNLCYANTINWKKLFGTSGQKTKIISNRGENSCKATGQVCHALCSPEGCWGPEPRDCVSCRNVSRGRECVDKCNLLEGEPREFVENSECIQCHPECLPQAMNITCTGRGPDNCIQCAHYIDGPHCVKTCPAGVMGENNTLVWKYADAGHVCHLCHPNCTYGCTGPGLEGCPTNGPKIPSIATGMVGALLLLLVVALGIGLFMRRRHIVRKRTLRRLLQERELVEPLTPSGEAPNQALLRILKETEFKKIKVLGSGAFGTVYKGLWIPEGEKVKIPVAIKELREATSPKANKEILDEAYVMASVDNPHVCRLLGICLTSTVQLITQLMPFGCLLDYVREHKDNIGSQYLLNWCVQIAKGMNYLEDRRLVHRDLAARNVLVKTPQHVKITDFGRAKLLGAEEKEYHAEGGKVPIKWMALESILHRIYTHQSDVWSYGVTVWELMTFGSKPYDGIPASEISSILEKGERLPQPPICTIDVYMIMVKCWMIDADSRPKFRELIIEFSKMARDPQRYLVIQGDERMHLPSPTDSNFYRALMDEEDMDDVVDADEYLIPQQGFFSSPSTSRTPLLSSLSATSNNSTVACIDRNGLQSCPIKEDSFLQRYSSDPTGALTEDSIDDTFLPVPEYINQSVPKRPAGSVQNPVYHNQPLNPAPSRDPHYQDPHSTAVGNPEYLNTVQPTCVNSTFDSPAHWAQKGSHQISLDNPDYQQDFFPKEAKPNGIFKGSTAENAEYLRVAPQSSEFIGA
T3 sequence (P00533 25-1210 G719S): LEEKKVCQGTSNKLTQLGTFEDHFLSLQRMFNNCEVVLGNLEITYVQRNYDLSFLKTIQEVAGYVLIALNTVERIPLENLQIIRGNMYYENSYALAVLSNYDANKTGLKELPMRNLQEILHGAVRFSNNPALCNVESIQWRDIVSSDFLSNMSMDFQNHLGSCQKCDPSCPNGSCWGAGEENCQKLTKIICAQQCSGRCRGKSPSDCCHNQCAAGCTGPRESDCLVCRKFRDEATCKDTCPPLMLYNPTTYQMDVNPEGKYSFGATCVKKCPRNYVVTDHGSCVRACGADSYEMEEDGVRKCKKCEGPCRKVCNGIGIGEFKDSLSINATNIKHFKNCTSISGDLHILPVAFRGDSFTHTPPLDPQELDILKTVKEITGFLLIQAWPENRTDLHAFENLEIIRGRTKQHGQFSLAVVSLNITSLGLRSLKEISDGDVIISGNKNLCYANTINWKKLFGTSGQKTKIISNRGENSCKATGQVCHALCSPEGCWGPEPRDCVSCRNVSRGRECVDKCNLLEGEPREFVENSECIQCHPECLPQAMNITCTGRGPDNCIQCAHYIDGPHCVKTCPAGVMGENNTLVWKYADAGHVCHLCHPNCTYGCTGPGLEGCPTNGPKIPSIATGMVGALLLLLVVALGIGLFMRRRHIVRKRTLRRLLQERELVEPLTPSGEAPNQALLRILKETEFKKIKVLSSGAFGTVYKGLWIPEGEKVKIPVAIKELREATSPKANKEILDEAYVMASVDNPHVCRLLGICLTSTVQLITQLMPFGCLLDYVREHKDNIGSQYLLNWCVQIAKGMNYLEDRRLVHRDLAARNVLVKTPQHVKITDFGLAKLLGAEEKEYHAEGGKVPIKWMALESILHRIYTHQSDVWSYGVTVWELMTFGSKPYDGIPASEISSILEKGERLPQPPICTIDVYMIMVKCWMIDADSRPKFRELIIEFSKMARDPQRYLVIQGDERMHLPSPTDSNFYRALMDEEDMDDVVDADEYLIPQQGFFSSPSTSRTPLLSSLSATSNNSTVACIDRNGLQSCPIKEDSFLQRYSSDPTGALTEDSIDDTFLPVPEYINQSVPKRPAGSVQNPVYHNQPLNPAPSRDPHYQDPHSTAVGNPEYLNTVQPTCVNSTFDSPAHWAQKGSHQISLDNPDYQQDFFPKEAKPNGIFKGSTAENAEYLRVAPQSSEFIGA
T9 sequence (P00533 25-1210 L861Q): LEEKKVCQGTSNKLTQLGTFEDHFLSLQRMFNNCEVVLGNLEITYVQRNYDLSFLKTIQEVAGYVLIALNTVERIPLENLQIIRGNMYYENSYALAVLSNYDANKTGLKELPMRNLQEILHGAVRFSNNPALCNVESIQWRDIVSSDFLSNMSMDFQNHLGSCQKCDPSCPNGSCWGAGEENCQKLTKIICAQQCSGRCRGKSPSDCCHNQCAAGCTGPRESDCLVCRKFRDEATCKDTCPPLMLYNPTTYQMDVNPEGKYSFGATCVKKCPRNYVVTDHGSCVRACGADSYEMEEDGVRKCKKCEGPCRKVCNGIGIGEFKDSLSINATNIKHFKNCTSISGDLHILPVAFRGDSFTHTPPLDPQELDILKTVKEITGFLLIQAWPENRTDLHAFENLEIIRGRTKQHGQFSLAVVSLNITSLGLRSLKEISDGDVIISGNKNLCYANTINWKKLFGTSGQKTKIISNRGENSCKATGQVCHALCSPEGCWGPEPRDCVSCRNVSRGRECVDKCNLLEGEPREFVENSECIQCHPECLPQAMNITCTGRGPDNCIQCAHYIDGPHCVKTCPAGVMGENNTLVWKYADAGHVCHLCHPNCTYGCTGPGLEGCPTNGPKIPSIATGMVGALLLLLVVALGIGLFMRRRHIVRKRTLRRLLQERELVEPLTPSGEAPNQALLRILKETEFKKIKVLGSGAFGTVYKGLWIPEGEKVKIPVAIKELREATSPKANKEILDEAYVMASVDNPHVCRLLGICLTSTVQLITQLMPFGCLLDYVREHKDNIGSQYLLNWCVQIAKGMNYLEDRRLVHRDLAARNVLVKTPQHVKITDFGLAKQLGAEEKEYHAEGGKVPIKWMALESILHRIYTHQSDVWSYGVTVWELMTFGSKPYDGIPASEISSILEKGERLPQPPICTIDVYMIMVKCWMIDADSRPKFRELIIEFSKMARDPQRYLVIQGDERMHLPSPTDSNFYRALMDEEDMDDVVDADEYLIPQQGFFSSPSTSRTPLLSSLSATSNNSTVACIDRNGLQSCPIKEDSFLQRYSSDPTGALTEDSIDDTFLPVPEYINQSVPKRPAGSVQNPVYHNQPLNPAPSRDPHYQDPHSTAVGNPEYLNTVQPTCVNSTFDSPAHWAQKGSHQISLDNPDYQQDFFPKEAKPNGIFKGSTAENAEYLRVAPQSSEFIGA

The term IC50 denotes the concentration that gives 50% inhibition. As usually defined, the GI50 is the concentration that inhibits growth by half. A lower GI50 goes with greater sensitivity of the cells. With `COc1cc(N2CCC(N3CCN(C)CC3)CC2)c(C)cc1Nc1nc(Nc2ccc3nccnc3c2P(C)(C)=O)c2cc[nH]c2n1` [Example 54, (6-((2-((2-methoxy-5-methyl-4-(4-(4-methyl-piperazin-1-yl)piperidin-1-yl)phenyl)amino)-7H-pyrrolo[2,3-d]pyrimidin-4-yl)amino)quinoxalin-5-yl)dimethyl-phosphine oxide], the remaining binding at 1 µM (on EGFR (E746-A750del); at EGFR (G719C); on EGFR (G719S); at EGFR; in [1]; in assay [2]) was less than 30% throughout. Further, the remaining binding at 1 µM is less than 30% at EGFR (L858R); less than 30% at EGFR (L858R, T790M); less than 30% on EGFR (L861Q); less than 30% on EGFR (T790M); less than 30% at EGFR(S752-I759del). In addition, the “control percentage (% control)” value in assay [3] is reported as less than 30%. For the same compound, at EGFR Del19/T790M/C797S, the half-inhibitory concentration (IC50) was no more than 0.05 µM. Further, the concentration for 50% growth inhibition (GI50) in [4] was no more than 0.05 µM; in the assay with BaF3-EGFR (WT) cells it was greater than 0.1 µM.

For the compound `Cn1ncc(Nc2nc(Nc3ccc4nccnc4c3P(C)(C)=O)c3cc[nH]c3n2)c1Cl` [Example 137, (6-((2-((5-chloro-1-methyl-1H-pyrazol-4-yl)amino)-7H-pyrrolo[2,3-d]pyrimidin-4-yl)amino)quinoxalin-5-yl)dimethyl-phosphine oxide], at EGFR Del19/T790M/C797S, the 50% inhibitory concentration (IC50) is no more than 0.05 µM. The GI50 (in assay [4]; in the assay with BaF3-EGFR (WT) cells) was greater than 0.1 µM each time.

(Values after patent publication US20240067668A1, “HETEROARYL DERIVATIVE COMPOUND AND USE THEREOF” (VORONOI INC., priority 2020, published 2024).)
